Measured values as given in patent US20140309265A1, “MACROCYCLIC COMPOUNDS FOR INHIBITION OF INHIBITORS OF APOPTOSIS” (Ensemble Therapeutics, priority 2011, published 2014).
Like-named read-outs stand apart in the source and are kept apart here.

What was measured:
Format in all cases: binding
[1] = biological target: N-His-Tb-BIR3(262-352, cIAP1) (Homo sapiens, UniProt Q13490); test: cIAP1-BIR3 SMAC Peptide Fluorescence Polarization Assay (FPA); conditions: Table 3
Experimental: C. cIAP1-BIR3SMAC Peptide Fluorescence Polarization Assay (FPA)
Assays were performed in black, round-bottom, 96-well plates. The final assay volume was 30 μL prepared from additions of N-His-Tb-BIR3(262-352, cIAP1), fluoresceinated modified SMAC peptide, and test compounds in assay buffer consisting of 20 mM Sodium Phosphate, 1 mM EDTA, 50 mM NaCl, and 0.05% Pluronic F68. The reaction was incubated at room temperature for 60 minutes and fluorescence polarization of the reaction was detected on the LJL Plate Reader. […] The final concentration of reagents in the assay was 36.1 nM N-His-Tb-BIR3(262-352, cIAP1), 1.4 nM fluoresceinated modified SMAC peptide, and 1% DMSO. […] Compounds were dissolved at 10 mM in dimethylsulfoxide (DMSO) and evaluated at eight concentrations. IC50 values were derived by non-linear regression analysis.

[2] = biological target: N-His-Tb-BIR3(241-356, XIAP) (Homo sapiens, UniProt P98170); test: XIAP-BIR3 SMAC Peptide Fluorescence Polarization Assay (FPA)
Chain of N-His-Tb-BIR3(241-356, XIAP) (P98170 241-356): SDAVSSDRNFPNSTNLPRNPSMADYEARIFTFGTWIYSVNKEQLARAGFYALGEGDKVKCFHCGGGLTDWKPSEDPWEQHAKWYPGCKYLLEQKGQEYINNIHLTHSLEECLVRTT

[3] = biological target: T1, XIAP His-BIR2 (124-240/C202A/C213G) (Homo sapiens, UniProt P98170, C202A/C213G); test: XIAP-BIR2/SMAC Peptide AlphaScreen Assay
T1 construct: additions of His-BIR2 (124-240/C202A/C213G), Biotinylated SMAC peptide
T1 sequence (P98170 124-240 C202A/C213G): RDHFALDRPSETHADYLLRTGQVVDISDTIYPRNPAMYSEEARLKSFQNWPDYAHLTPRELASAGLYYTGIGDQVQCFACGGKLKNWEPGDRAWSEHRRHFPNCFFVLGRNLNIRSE
Experimental: A. XIAP-BIR2/SMAC Peptide AlphaScreen Assay Assays were performed in white, flat-bottom, 384-well ProxiPlates (Perkin Elmer). […] The reaction was incubated at room temperature for 60 minutes. After 60 minutes, 2.5 μL of Alphascreen detection reagent (Perkin Elmer) was added to the reaction mixture and incubated at room temperature in the dark for 120 minutes. The Alphascreen signal generated by the reaction was detected on the Envision Plate Reader. […] Compounds were dissolved at 10 mM in dimethylsulfoxide (DMSO) and evaluated at eleven concentrations. IC50 values were derived by non-linear regression analysis.

[4] = biological target: T2, His-BIR2-3 (125-356, C202A/C213G, XIAP) (Homo sapiens, UniProt P98170, C202A/C213G); test: XIAP-BIR2-3 Dimeric SMAC Peptide Homogeneous Time Resolved Fluorescence (HTRF) Assay; conditions: XIAP BIR2-3, HTRF, Table 4
T2 construct: additions of His-BIR2-3 (125-356, C202A/C213G, XIAP), fluorescein labeled dimeric SMAC peptide
T2 sequence (P98170 125-356 C202A/C213G): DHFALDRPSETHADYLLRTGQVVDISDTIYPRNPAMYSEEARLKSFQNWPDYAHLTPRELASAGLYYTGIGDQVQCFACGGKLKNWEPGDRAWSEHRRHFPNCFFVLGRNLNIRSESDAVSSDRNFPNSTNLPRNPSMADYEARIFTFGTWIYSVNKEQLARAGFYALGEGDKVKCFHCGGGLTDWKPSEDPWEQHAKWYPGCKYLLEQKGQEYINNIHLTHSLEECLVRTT

[5] = biological target: T3, His-BIR3 (241-356, XIAP) (Homo sapiens, UniProt P98170); test: XIAP-BIR3/SMAC Homogeneous Time Resolved Fluorescence (HTRF) Assay; conditions: Table 4
T3 construct: additions of His-BIR3 (241-356, XIAP), fluorescein labeled SMAC peptide
T3 sequence (P98170 241-356): as the sequence (P98170 241-356) above

[6] = XIAP BIR2, AlphaScreen, Table 2, read-out: BIR2 IC50
[7] = XIAP BIR2, Alphascreen, Table 4, read-out: BIR2 Alpha Screen IC50

Chain of N-His-Tb-BIR3(262-352, cIAP1) (Q13490 262-352): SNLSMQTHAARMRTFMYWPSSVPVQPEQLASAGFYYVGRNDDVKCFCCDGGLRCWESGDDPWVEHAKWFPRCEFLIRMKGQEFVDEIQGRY

| SMILES | IC50 [1] [µM] | IC50 [2] [µM] | IC50 [3, 6] [µM] | IC50 [4] [µM] | IC50 [3, 7] [µM] | IC50 [5] [µM] |
| --- | --- | --- | --- | --- | --- | --- |
| CN[C@@H](C)C(=O)N[C@H](C(=O)N1C[C@@H]2C[C@H]1C(=O)N[C@@H](Cc1ccc3ccccc3c1)C(=O)N[C@H](C(=O)O)Cc1ccc(cc1)OCc1cn(nn1)[C@H]1C[C@@H](C(=O)N[C@@H](Cc3ccc4ccccc4c3)C(=O)N[C@H](C(=O)O)Cc3ccc(cc3)OCc3cn2nn3)N(C(=O)[C@@H](NC(=O)[C@H](C)NC)C(C)C)C1)C(C)C [Compound 110] | < 0.05 | < 0.05 | < 2 | – | – | – |
| CN[C@@H](C)C(=O)N[C@H](C(=O)N1C[C@@H]2C[C@H]1C(=O)N[C@@H](Cc1cccc3ccccc13)C(=O)N[C@H](C(=O)O)Cc1ccc(cc1)COc1cn(nn1)[C@H]1C[C@@H](C(=O)N[C@@H](Cc3cccc4ccccc34)C(=O)N[C@H](C(=O)O)Cc3ccc(cc3)OCc3cn2nn3)N(C(=O)[C@@H](NC(=O)[C@H](C)NC)C(C)C)C1)C(C)C [Compound 111] | < 0.05 | < 0.05 | < 2 | – | – | – |
| CN[C@@H](C)C(=O)N[C@H](C(=O)N1C[C@@H]2C[C@H]1C(=O)N[C@@H](Cc1ccccc1)C(=O)N[C@H](C(=O)O)Cc1ccc(cc1)OCCCn1cc(nn1)-c1ccc(cc1)-c1cn(nn1)[C@H]1C[C@@H](C(=O)N[C@@H](Cc3ccccc3)C(=O)N[C@H](C(=O)O)Cc3ccc(cc3)OCCCn3cc(nn3)-c3ccc(cc3)-c3cn2nn3)N(C(=O)[C@@H](NC(=O)[C@H](C)NC)C(C)C)C1)C(C)C [Compound 137] | < 0.05 | < 0.05 | < 2 | – | – | – |
| CN[C@@H](C)C(=O)N[C@H](C(=O)N1C[C@@H]2C[C@H]1C(=O)N[C@@H](Cc1ccc3ccccc3c1)C(=O)N[C@H](C(=O)O)Cc1ccc(cc1)OCc1cn(nn1)[C@H]1C[C@@H](C(=O)N[C@@H](Cc3ccc4ccccc4c3)C(=O)N[C@H](C(=O)NS(=O)(=O)C3CC3)Cc3ccc(cc3)OCc3cn2nn3)N(C(=O)[C@@H](NC(=O)[C@H](C)NC)C(C)(C)C)C1)C(C)(C)C [Compound 147] | – | < 0.05 | – | 0.001 to 0.01 | < 2 | < 0.01 |
| CN[C@@H](C)C(=O)N[C@H](C(=O)N1C[C@@H]2C[C@H]1C(=O)N[C@@H](Cc1ccc3ccccc3c1)C(=O)N[C@H](C(=O)NS(=O)(=O)C1CC1)Cc1ccc(cc1)OCc1cn(nn1)[C@H]1C[C@@H](C(=O)N[C@@H](Cc3ccc4ccccc4c3)C(=O)N[C@H](C(=O)NS(=O)(=O)C3CC3)Cc3ccc(cc3)OCc3cn2nn3)N(C(=O)[C@@H](NC(=O)[C@H](C)NC)C(C)(C)C)C1)C(C)(C)C [Compound 148] | – | < 0.05 | – | ≤ 0.001 | < 2 | < 0.01 |
| CN[C@@H](C)C(=O)N[C@H](C(=O)N1C[C@@H]2C[C@H]1C(=O)N[C@@H](Cc1ccc3ccccc3c1)C(=O)N[C@H](C(=O)O)Cc1ccc(cc1)OCc1cn(nn1)[C@H]1C[C@@H](C(=O)N[C@@H](Cc3ccc4ccccc4c3)C(=O)N[C@H](C(=O)NS(C)(=O)=O)Cc3ccc(cc3)OCc3cn2nn3)N(C(=O)[C@@H](NC(=O)[C@H](C)NC)C(C)(C)C)C1)C(C)(C)C [Compound 1002] | – | < 0.05 | – | – | < 2 | – |
| CN[C@@H](C)C(=O)N[C@H](C(=O)N1C[C@@H]2C[C@H]1C(=O)N[C@@H](Cc1ccc3ccccc3c1)C(=O)N[C@H](C(=O)NS(=O)(=O)c1ccccc1)Cc1ccc(cc1)OCc1cn(nn1)[C@H]1C[C@@H](C(=O)N[C@@H](Cc3ccc4ccccc4c3)C(=O)N[C@H](C(=O)NS(=O)(=O)c3ccccc3)Cc3ccc(cc3)OCc3cn2nn3)N(C(=O)[C@@H](NC(=O)[C@H](C)NC)C(C)(C)C)C1)C(C)(C)C [Compound 1003] | – | 0.05 to 0.1 | – | – | < 2 | – |
| CN[C@@H](C)C(=O)N[C@H](C(=O)N1C[C@@H]2C[C@H]1C(=O)N[C@@H](Cc1ccc3ccccc3c1)C(=O)N[C@H](C(=O)NS(C)(=O)=O)Cc1ccc(cc1)OCc1cn(nn1)[C@H]1C[C@@H](C(=O)N[C@@H](Cc3ccc4ccccc4c3)C(=O)N[C@H](C(=O)NS(C)(=O)=O)Cc3ccc(cc3)OCc3cn2nn3)N(C(=O)[C@@H](NC(=O)[C@H](C)NC)C(C)(C)C)C1)C(C)(C)C [Compound 1004] | – | 0.05 to 0.1 | – | – | < 2 | – |
| CCS(=O)(=O)NC(=O)[C@@H]1Cc2ccc(cc2)OCc2cn(nn2)[C@H]2C[C@@H](C(=O)N[C@@H](Cc3ccc4ccccc4c3)C(=O)N[C@H](C(=O)NS(=O)(=O)CC)Cc3ccc(cc3)OCc3cn(nn3)[C@H]3C[C@@H](C(=O)N[C@@H](Cc4ccc5ccccc5c4)C(=O)N1)N(C(=O)[C@@H](NC(=O)[C@H](C)NC)C(C)(C)C)C3)N(C(=O)[C@@H](NC(=O)[C@H](C)NC)C(C)(C)C)C2 [Compound 1005] | – | < 0.05 | – | – | < 2 | – |
| CN[C@@H](C)C(=O)N[C@H](C(=O)N1C[C@@H]2C[C@H]1C(=O)N[C@@H](Cc1ccc3ccccc3c1)C(=O)N[C@H](C(=O)NS(=O)(=O)C(F)(F)F)Cc1ccc(cc1)OCc1cn(nn1)[C@H]1C[C@@H](C(=O)N[C@@H](Cc3ccc4ccccc4c3)C(=O)N[C@H](C(=O)NS(=O)(=O)C(F)(F)F)Cc3ccc(cc3)OCc3cn2nn3)N(C(=O)[C@@H](NC(=O)[C@H](C)NC)C(C)(C)C)C1)C(C)(C)C [Compound 1007] | – | 0.05 to 0.1 | – | – | 2 to 12 | – |
